We go through eleven compounds from paper PMC10780244, “Antileishmanial Effect of 1,5- and 1,8-Substituted Fused Naphthyridines” (Molecules, 2023).

Some results are limits rather than exact numbers.

In the first series the test system is axenic iRFP-L. infantum amastigotes from bone marrow cells. Briefly: Axenic amastigote viability assay (iRFP fluorescence, first screening).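 Also: compounds not inhibiting growth at the cut-off were deemed poorly active.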 Type of series: cell-based. Particulars: Leishmania infantum, Bone marrow cell, cut-off 25 µM, 72 h, read-out: Axenic Amastigotes (concentration with inhibition). The protocol: (§1) The 1,5- and 1,8-fused naphthyridine derivatives were evaluated as antileishmanial agents in assays using two forms of L. infantum amastigotes: axenic amastigotes recovered from bone marrow cells of infected BALB/c mice and intramacrophagic amastigotes obtained from splenic explants of the same subjects. The L. infantum strain used is a genetically modified strain previously engineered by our group to constitutively express the infrared protein iRFP from Rhodopseudomonas palustris bacteriophytochrome (iRFP L. infantum). This strain allows monitoring the viability of both forms of the parasite by quantifying the fluorescence emitted at 700 nm by the iRFP protein produced by living amastigotes.
(§2) Amastigotes obtained from mouse bone marrow cells were used to perform a first screening with the complete series of fused 1,5- and 1,8-naphthyridines. […] The toxicity of these selected compounds was assessed in non-infected splenic cells and the cytotoxic concentration (CC50) value obtained was used to calculate the selective index (SI). The oral tolerability of these same compounds was tested by calculating the viability of murine intestinal organoids exposed to two concentrations (50 and 25 µM).
To obtain iRFP-L. infantum axenic amastigotes, femur and tibia were carefully cut at both ends, and marrow cells were removed by passing PBS through the medullary cavity with a 29G needle. The bone marrow cell suspension was filtered through a 100 µm cell strainer and centrifuged at 3500× g for 10 min at room temperature. After centrifugation, cells were resuspended in amastigote culture medium: 15 mM KCl; 136 mM KH2PO4; 10 mM K2HPO4·3H2O; 0.5 mM MgSO4. 7H2O; 24 mM NaHCO3; 22 mM glucose; 1 mM glutamine, 1xRPMI 1640 vitamin mix (Sigma-Aldrich, Merck, Darmstadt, Germany), 10 mM folic acid, 100 mM adenosine, 1xRPMI amino acid mix (Sigma-Aldrich, Merck, Darmstadt, Germany), 5 mg/mL hemin, antibiotic cocktail, 25 mM MES and 10% FBS, and incubated at 37 °C.
To test the antileishmanial effect of naphthyridines on axenic amastigotes, 40 μL of a suspension containing 3 × 10^4 iRFP-L. infantum parasites per well were incubated with another 40 μL of the drugs dilutions in amastigote culture medium with 7.5% FBS. Incubations were performed in 384-well black microtiter plates with an optical bottom at 37 °C and 5% CO2 for 72 h. Solutions of 0.1% (v/v) DMSO and 10 μM AMB were used as negative and positive controls, respectively. The assays were performed by triplicate.
(§3) The viability of axenic and intramacrophage amastigotes was calculated measuring the fluorescence emitted at 700 nm by the iRFP protein from live parasites and recorded by an Odyssey infrared imaging system (Li-Cor, NE, USA). The fluorescence emitted by the negative control wells was considered 100% viability, whereas the fluorescence emitted by the positive control wells, was adjusted to 0% viability.
Turning to `O=C1Oc2ccccc2C2Nc3ccc(Br)nc3[C@@H](c3ccccc3)C12` (stereo partly drawn) [Compound 6b], the minimal effective concentration is below 25 µM.
`COc1ccc2nc3c(c(-c4ccccc4)c2n1)c(=O)oc1ccccc13` [Compound 7c]: the minimal effective concentration was below 25 µM.
In the case of `Cc1ccc(S(=O)(=O)N2CC3C(Nc4cccnc4[C@H]3c3ccccc3)c3ccccc32)cc1` (stereo partly drawn) [Compound 8a], the minimal effective concentration was below 25 µM.
`COc1ccc2c(n1)[C@@H](c1ccccc1)C1CN(S(=O)(=O)c3ccc(C)cc3)c3ccccc3C1N2` (stereo partly drawn) [Compound 8c]: the minimal effective concentration was below 25 µM.
Regarding `Cc1ccc(S(=O)(=O)N2CC3C(Nc4ccc(Br)nc4[C@H]3c3ccccc3)c3ccccc32)cc1` (stereo partly drawn) [Compound 8d], the minimal effective concentration was below 25 µM.
Regarding `Fc1ccc2c(c1)C1Nc3ncccc3[C@@H](c3ccccc3)C1CO2` (stereo partly drawn) [Compound 10b], the minimal effective concentration is below 25 µM.
For `c1ccc(-c2c3c(nc4ncccc24)-c2ccccc2OC3)cc1` [Compound 11a], the minimal effective concentration is below 25 µM.
Still for that read-out and setting: next, `O=c1oc2ccccc2c2nc3ncccc3c(-c3ccccc3)c12` [Compound 13a]: below 25 µM.
As for `O=c1oc2ccccc2c2nc3ncc(Br)cc3c(-c3ccccc3)c12` [Compound 13b], the minimal effective concentration is below 25 µM.
On to `Cc1ccc(S(=O)(=O)N2CC3C(Nc4ncccc4C3c3ccccc3)c3ccccc32)cc1` (stereo not drawn) [Compound 14a], for which the minimal effective concentration is below 25 µM.
As to `Cc1ccc(S(=O)(=O)N2Cc3c(nc4ncc(Br)cc4c3-c3ccccc3)-c3ccccc32)cc1` [Compound 15b], the minimal effective concentration was below 25 µM.

Another series deals with intramacrophagic iRFP-L. infantum amastigotes from murine spleens. Briefly: Ex vivo intramacrophagic amastigote viability assay (iRFP fluorescence). Type of series: cell-based, Leishmania infantum. Particulars: Leishmania infantum; ex vivo murine splenic explants, 72 h; read-out: Intracellular Amastigotes EC50. The protocol: as §1, §2
Intramacrophagic amastigotes were obtained by cutting spleens into small pieces that were incubated for 25 min with 0.5 mL of collagenase D (2 mg/mL) (Merck, Darmstadt, Germany) dissolved in 4.5 mL buffer (10 mM HEPES, pH 7.4, 150 mM NaCl, 5 mM KCl, 1 mM MgCl2 and 1.8 mM CaCl2). The cell suspension was filtered through a 100 µm cell strainer. After erythrocyte lysis (150 mM NH4Cl, 1 mM KHCO3, 0.1 mM EDTA), splenocytes were centrifuged three times at 500× g for 7 min at 4 °C, with PBS washes between each centrifugation. The splenocyte suspension containing intramacrophagic amastigotes was resuspended in RPMI medium (Gibco, Fisher Scientific, Waltham, MA, USA) supplemented with 20% FBS, 1 mM sodium pyruvate, 24 mM NaHCO3, 2 mM L-glutamine, 1× RPMI vitamins, 25 mM HEPES and antibiotic cocktail.
For the ex vivo intramacrophagic amastigote assay, 40 μL of one-half or one-third serial dilutions of each diluted in supplemented RPMI medium, were added to black 384-well optical-bottom black plates containing 40 μL of murine splenocytes obtained as described above. Positive controls (containing 10 μM of AMB) and negative controls (containing 0.1% v/v DMSO) were included. The plates were incubated at 37 °C and 5% CO2, for a maximum period of 72 h and the assays were performed by triplicate.
as §3
Fluorescence emitted by intramacrophage amastigotes were plotted against the drug concentration using the nonlinear fit analysis provided by the Sigma Plot 10.1 statistical package to obtain EC50 values.
Turning to `O=C1Oc2ccccc2C2Nc3ccc(Br)nc3[C@@H](c3ccccc3)C12` (stereo partly drawn) [Compound 6b], the EC50 (commonly the concentration at which the effect is half-maximal) was determined as 12.9 ± 0.82 µM.
In the case of `COc1ccc2nc3c(c(-c4ccccc4)c2n1)c(=O)oc1ccccc13` [Compound 7c], the EC50 is 37 ± 2.87 µM.
`Cc1ccc(S(=O)(=O)N2CC3C(Nc4cccnc4[C@H]3c3ccccc3)c3ccccc32)cc1` (stereo partly drawn) [Compound 8a]: the EC50 came to 5.3 ± 0.71 µM.
With `COc1ccc2c(n1)[C@@H](c1ccccc1)C1CN(S(=O)(=O)c3ccc(C)cc3)c3ccccc3C1N2` (stereo partly drawn) [Compound 8c], the EC50 came out at 4.93 ± 0.35 µM.
The same measure, in the same setting: next, `Cc1ccc(S(=O)(=O)N2CC3C(Nc4ccc(Br)nc4[C@H]3c3ccccc3)c3ccccc32)cc1` (stereo partly drawn) [Compound 8d]: 34.4 ± 9.7 µM.
In the case of `Fc1ccc2c(c1)C1Nc3ncccc3[C@@H](c3ccccc3)C1CO2` (stereo partly drawn) [Compound 10b], the EC50 came to 7.57 ± 0.44 µM.
The same measure, in the same setting: the value for `c1ccc(-c2c3c(nc4ncccc24)-c2ccccc2OC3)cc1` [Compound 11a] was 7.7 ± 0.29 µM; that for `O=c1oc2ccccc2c2nc3ncccc3c(-c3ccccc3)c12` [Compound 13a] was 10.6 ± 1.21 µM; that for `O=c1oc2ccccc2c2nc3ncc(Br)cc3c(-c3ccccc3)c12` [Compound 13b] was 7.53 ± 0.97 µM.
Same read-out and setting: next, `Cc1ccc(S(=O)(=O)N2CC3C(Nc4ncccc4C3c3ccccc3)c3ccccc32)cc1` (stereo not drawn) [Compound 14a]: 9.34 ± 0.77 µM; `Cc1ccc(S(=O)(=O)N2Cc3c(nc4ncc(Br)cc4c3-c3ccccc3)-c3ccccc32)cc1` [Compound 15b]: 6.16 ± 0.54 µM.

Still in this series, the particulars now being: ratio CC50 (splenic macrophages) / EC50 (intramacrophagic amastigotes).
With `O=C1Oc2ccccc2C2Nc3ccc(Br)nc3[C@@H](c3ccccc3)C12` (stereo partly drawn) [Compound 6b], the SI is on record as 4.3.
As to `COc1ccc2nc3c(c(-c4ccccc4)c2n1)c(=O)oc1ccccc13` [Compound 7c], the SI is given as 2.6.
For `Cc1ccc(S(=O)(=O)N2CC3C(Nc4cccnc4[C@H]3c3ccccc3)c3ccccc32)cc1` (stereo partly drawn) [Compound 8a], the SI was 8.5.
Take `Fc1ccc2c(c1)C1Nc3ncccc3[C@@H](c3ccccc3)C1CO2` (stereo partly drawn) [Compound 10b]: the SI is listed as 6.7.
In the case of `O=c1oc2ccccc2c2nc3ncccc3c(-c3ccccc3)c12` [Compound 13a], the SI is 3.3.
Regarding `O=c1oc2ccccc2c2nc3ncc(Br)cc3c(-c3ccccc3)c12` [Compound 13b], the SI is above 6.6.
On the same count and under the same terms, next, `Cc1ccc(S(=O)(=O)N2CC3C(Nc4ncccc4C3c3ccccc3)c3ccccc32)cc1` (stereo not drawn) [Compound 14a]: 2.9.
For the compound `Cc1ccc(S(=O)(=O)N2Cc3c(nc4ncc(Br)cc4c3-c3ccccc3)-c3ccccc32)cc1` [Compound 15b], the SI amounted to 4.0.

The same series, now with this note: summary in discussion.
Take `O=c1oc2ccccc2c2nc3ncccc3c(-c3ccccc3)c12` [Compound 13a]: the “antileishmanial activity against Leishmania amastigotes (in words)” value (from here on “antileishmanial activity”) is on record as “significant antileishmanial activity”.
Turning to `Cc1ccc(S(=O)(=O)N2CC3C(Nc4ncccc4C3c3ccccc3)c3ccccc32)cc1` (stereo not drawn) [Compound 14a], the “antileishmanial activity” value is given as “significant antileishmanial activity”.
Consider `Cc1ccc(S(=O)(=O)N2Cc3c(nc4ncc(Br)cc4c3-c3ccccc3)-c3ccccc32)cc1` [Compound 15b], for which the “antileishmanial activity” value is recorded as “significant antileishmanial activity”.

The test system of the next series is mouse splenic macrophages. The series can be described thus: Cytotoxicity in uninfected murine splenic cells (alamarBlue). Format: cell-based. The following applies: summary in discussion. As for the experimental part:
Amastigotes obtained from mouse bone marrow cells were used to perform a first screening with the complete series of fused 1,5- and 1,8-naphthyridines. […] The toxicity of these selected compounds was assessed in non-infected splenic cells and the cytotoxic concentration (CC50) value obtained was used to calculate the selective index (SI). The oral tolerability of these same compounds was tested by calculating the viability of murine intestinal organoids exposed to two concentrations (50 and 25 µM). In order to assess the in vitro safety of the naphthyridines, cytotoxicity assays were carried out in ex vivo splenic explants from uninfected mice, which were prepared as previously described to obtain intramacrophagic amastigotes. Cells were seeded at a density of 1 × 10^6 cells per well in 96-well plates containing the prediluted compounds and incubated at 37 °C and 5% CO2 during 72 h. AlamarBlue assay (Invitrogen, Fisher Scientific, Waltham, MA, USA) was used to estimate cell viability following manufacturer’s recommendations. The assays were performed by triplicate. Absorbance of viable cells vs. compound concentrations were fitted by nonlinear analysis using the Sigma Plot 10.1 statistical package to calculate the cytotoxic concentration 50 (CC50) values. Selectivity index (SI) was calculated as the ratio between CC50 and the EC50 values of intramacrophagic amastigotes.
On the technique in general: Resazurin is reduced to fluorescent resorufin, in cell work by metabolically active cells.
Turning to `O=c1oc2ccccc2c2nc3ncccc3c(-c3ccccc3)c12` [Compound 13a], the “toxicity (in words)” value is listed as “significant toxicity”.
Still for that read-out and setting: the value for `Cc1ccc(S(=O)(=O)N2CC3C(Nc4ncccc4C3c3ccccc3)c3ccccc32)cc1` (stereo not drawn) [Compound 14a] was “significant toxicity”; that for `Cc1ccc(S(=O)(=O)N2Cc3c(nc4ncc(Br)cc4c3-c3ccccc3)-c3ccccc32)cc1` [Compound 15b] was “significant toxicity”.

A further series deals with leishmanial DNA topoisomerase IB (LdTopIB). Briefly: Relaxation of supercoiled plasmid DNA assay. Type of series: biochemical, Leishmania. Particulars: 100 μM of compounds, 1 min at 37 °C, in words. As for the experimental part:
page 2: DNA DMSO 6b8a8b8c9b10b11a13a13b14a7c8d15b Relaxationof supercoiled plasmid DNA assay. Each reaction contains one unit of purified leishmanial DNA topisomeraseIB enzyme (LdTopIB), 100 μM ofcompounds, 0.5μg of supercoiled […], 10 mM Tris-HCl buffer pH 7.5, 5 mM MgCl 2, 0.1 mM EDTA, 15 μg/mL bovine serum albumin, 150 mM KCl. Reaction mixtures were incubated 1 min at 37 °C and stopped by the addition of 4 μL loading buffer (5% sarkosyl, 0.12% bromophenol blue, 25% glycerol). The topoisomerswere resolved in 1% agarose gels by electrophoresis in 0.1 M Tris borate EDTA buffer (pH 8.0) at 2 V/cm for 16 h and visualized with UV illumination after ethidium bromide (0.5μg/mL) staining. […]
For `O=c1oc2ccccc2c2nc3ncccc3c(-c3ccccc3)c12` [Compound 13a], the LdTopIB inhibitory activity result was “did not show leishmanial DNA topoisomerase IB (LdTopIB) inhibitory activity”.
Regarding `Cc1ccc(S(=O)(=O)N2CC3C(Nc4ncccc4C3c3ccccc3)c3ccccc32)cc1` (stereo not drawn) [Compound 14a], the LdTopIB inhibitory activity result is recorded as “did not show leishmanial DNA topoisomerase IB (LdTopIB) inhibitory activity”.
On the same count and under the same terms, the value for `Cc1ccc(S(=O)(=O)N2Cc3c(nc4ncc(Br)cc4c3-c3ccccc3)-c3ccccc32)cc1` [Compound 15b] was “did not show leishmanial DNA topoisomerase IB (LdTopIB) inhibitory activity”.

Another series deals with recombinant human DNA topoisomerase IB (hTopIB).
Assay: not given
Set-up: method as in PMID 31229877, PMID 32279049, PMID 33962152; dose or concentration left out as unconfirmed. The following applies: cited from earlier work.
For the compound `O=c1oc2ccccc2c2nc3ncccc3c(-c3ccccc3)c12` [Compound 13a], the “inhibitory effect on DNA relaxation activity of hTopIB” value (“inhibitory effect” for short) is on record as “had an inhibitory effect on DNA relaxation activity”.
Consider `Cc1ccc(S(=O)(=O)N2CC3C(Nc4ncccc4C3c3ccccc3)c3ccccc32)cc1` (stereo not drawn) [Compound 14a], for which the “inhibitory effect” value is “had an inhibitory effect on DNA relaxation activity”.
Regarding `Cc1ccc(S(=O)(=O)N2Cc3c(nc4ncc(Br)cc4c3-c3ccccc3)-c3ccccc32)cc1` [Compound 15b], the “inhibitory effect” value is “had an inhibitory effect on DNA relaxation activity”.
